Target: T1, humanized mhT1R3 (Homo sapiens, UniProt Q7RTX0, A109T/A120V/A176D/A197V/A198V/A228S/A231N/A248T/A280V/A282S/A302S/A412V/A417V/A46T/A537T/C375D/D124S/D249S/D250G/D364H/D419E/D470T/D491G/D88A/DEL352-352/DEL488-489/E172D/E199T/E203N/E217D/E356N/E45S/E481Q/E505D/E525K/E545Q/F540P/F555L/G168S/G205S/G311T/G314N/G355L/G360D/G414H/G438R/G439D/G463S/G50T/G542N/H261R/H278R/H281Y/H332P/I485M/I536F/INS376MLQNLSSG/K32Q/K339E/K422L/K494V/K86G/L173R/L245Q/L272V/L29F/L354S/L385Q/L433M/L458M/L483S/L71F/L74M/M151L/M315I/M318V/M31A/N285S/N386L/N532H/N68L/P112S/P246H/P335S/P416H/P420H/P441T/P60I/Q221E/Q257L/Q317R/Q330L/Q336H/Q359L/Q372R/Q418S/Q504K/Q531K/R123Q/R247D/R252Q/R291G/R30K/R357A/R443Q/R467V/R473T/R479Q/R482Q/R486Y/R498Q/R52N/R550K/R553A/R556P/R560K/R56Q/S251Q/S267K/S289H/S290H/S392A/S446A/S447E/S464P/S477T/S490P/S53Q/S559P/S58N/S67P/T195Q/T346A/T377L/T390I/T434S/T480L/T63N/V152I/V277A/V366M/V36I/V381L/V393T/V437A/V465T/V61P/W72L)
T1 construct: the extracellular domain is of mouse origin and the transmembrane and intracellular domains of human origin; mouse T1R3 extracellular domain (fusion partner replacing the human extracellular domain); expressed in transfected cells; host or cells: transgenic Line 7c mice (T1R3-/-, Gus-/-, mhT1R3+/-)
T1 sequence (Q7RTX0 with tags, fused parts or gaps L29F/R30K/M31A/K32Q/V36I/E45S/A46T/G50T/R52N/S53Q/R56Q/S58N/P60I/V61P/T63N/S67P/N68L/L71F/W72L/L74M/K86G/D88A/A109T/P112S/A120V/R123Q/D124S/M151L/V152I/G168S/E172D/L173R/A176D/T195Q/A197V/A198V/E199T/E203N/G205S/E217D/Q221E/A228S/A231N/L245Q/P246H/R247D/A248T/D249S/D250G/S251Q/R252Q/Q257L/H261R/S267K/L272V/V277A/H278R/A280V/H281Y/A282S/N285S/S289H/S290H/R291G/A302S/G311T/G314N/M315I/Q317R/M318V/Q330L/H332P/P335S/Q336H/K339E/T346A/DEL352-352/L354S/G355L/E356N/R357A/Q359L/G360D/D364H/V366M/Q372R/C375D/INS376MLQNLSSG/T377L/V381L/L385Q/N386L/T390I/S392A/V393T/A412V/G414H/P416H/A417V/Q418S/D419E/P420H/K422L/L433M/T434S/V437A/G438R/G439D/P441T/R443Q/S446A/S447E/L458M/G463S/S464P/V465T/R467V/D470T/R473T/S477T/R479Q/T480L/E481Q/R482Q/L483S/I485M/R486Y/DEL488-489/S490P/D491G/K494V/R498Q/Q504K/E505D/E525K/Q531K/N532H/I536F/A537T/F540P/G542N/E545Q/R550K/R553A/F555L/R556P/S559P/R560K limits assumed): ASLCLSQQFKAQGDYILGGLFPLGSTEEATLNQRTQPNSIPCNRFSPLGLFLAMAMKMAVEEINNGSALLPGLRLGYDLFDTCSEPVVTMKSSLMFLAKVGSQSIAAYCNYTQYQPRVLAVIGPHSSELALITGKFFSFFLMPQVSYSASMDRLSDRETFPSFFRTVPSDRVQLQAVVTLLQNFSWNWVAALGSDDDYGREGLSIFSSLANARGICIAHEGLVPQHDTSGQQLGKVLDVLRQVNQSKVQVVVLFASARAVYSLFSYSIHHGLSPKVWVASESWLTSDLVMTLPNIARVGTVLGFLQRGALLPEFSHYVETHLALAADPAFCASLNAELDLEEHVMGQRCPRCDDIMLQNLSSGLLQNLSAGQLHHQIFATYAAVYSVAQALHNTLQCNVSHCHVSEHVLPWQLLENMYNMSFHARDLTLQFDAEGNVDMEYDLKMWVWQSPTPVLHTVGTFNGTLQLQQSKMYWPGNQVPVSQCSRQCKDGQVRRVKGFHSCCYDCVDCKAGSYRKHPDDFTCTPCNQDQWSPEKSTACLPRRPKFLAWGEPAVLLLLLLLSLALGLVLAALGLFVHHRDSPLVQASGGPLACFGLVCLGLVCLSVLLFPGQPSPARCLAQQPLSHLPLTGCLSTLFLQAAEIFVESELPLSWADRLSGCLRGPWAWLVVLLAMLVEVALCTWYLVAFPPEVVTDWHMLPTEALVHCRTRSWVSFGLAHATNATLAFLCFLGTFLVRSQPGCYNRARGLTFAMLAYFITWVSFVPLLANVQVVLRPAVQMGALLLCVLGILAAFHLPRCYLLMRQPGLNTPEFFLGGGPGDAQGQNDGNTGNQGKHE
Test: T1R3 pharmacological block with clofibrate diet (male reproduction)
Assay type: in vivo, mouse
Details: line 7c males on clofibrate diet, mated with WT females
Experimental: Matched groups (six males each) of WT and line 7c mice (expressing the chimerical mhT1R3 transgene on a T1R3/α-gustducin double-null background), 3-6 months old, were fed the indicated diets for 4-6 weeks. Each genotype was tested in two groups, one on the regular diet and one on a test diet with clofibrate. An additional group of males stayed on the test diet for another 4-6 weeks, during which time they were mated with WT females to determine whether the pharmacological intervention was effective. Then the animals were allowed to recover on the regular diet for an additional 4 weeks after the end of the treatment (half-time for total sperm turnover in mice), and again were tested for their reproductive capacity, and then their tissues were analyzed. […]
We observed spermatozoa after clofibrate treatment represent cells that were able to escape the inhibition of clofibric acid, most likely due to very fast clearance and fluctuating levels in rodents. […] Therefore, we measured sperm concentration as an indicator of efficiency of the pharmacological block and to be able to determine the concentration that results in effective sterility. We analyzed testicular morphology, sperm production, sperm motility and sperm function in in vitro fertilization after feeding these animals with the lipid lowering drug clofibrate. […]

CC(C)(Oc1ccc(Cl)cc1)C(=O)O [clofibric acid]
male fertility: significantly affected male fertility

Source: US20150045610A1, “METHOD OF MODIFYING SPERMATOGENESIS, SPERMIOGENESIS AND/OR FERTILITY IN MAMMALS” (Monell Chemical Senses Center, priority 2012, published 2015)
